The test system of data set [1] is LNCaP tumor-bearing SCID mice. The experiment in a line: Biodistribution at 1 h p.i. with competition (co-injected PMPA). It counts as in vivo. The settings on record: co-injected with PMPA (8 mg/kg). Here is the method: FIG. 11: Biodistribution [% ID/g] of ^18F-rhPSMAs co-injected with PMPA (8 mg/kg) at 1 h p.i in LNCaP tumor-bearing SCID mice. Data are expressed as mean±SD (n=3).

The target of another data set is T1, PSMA (Homo sapiens, UniProt Q04609).
T1 construct: endogenous in cells; host or cells: LNCaP cells
The data set can be described thus: Determination of IC50: PSMA affinity, competitive binding on LNCaP cells against ([125I]I-BA)KuE. The settings on record: LNCaP cells, [125I]IB-KuE c=0.2 nM, 1 h, 4° C. Here is the method:
Data are expressed as mean±SD (n=3, in 3 different experiments).
After removal of the culture medium, the cells were treated once with 500 μL of HBSS (Hank's balanced salt solution, Biochrom, Berlin, Germany, with addition of 1% bovine serum albumin (BSA)) and left 15 min on ice for equilibration in 200 μL HBSS (1% BSA). […] Quantification of bound and free radioligand was accomplished in a γ-counter.

Data set [2] is described as follows: Octanol-water partition coefficient (n-octanol/PBS pH 7.4). In kind it is physicochemical. The following applies: octanol/PBS7.4. Here is the method:
Approximately 1 MBq of the labeled tracer was dissolved in 1 mL of a 1:1 mixture (by volumes) of phosphate buffered saline (PBS, pH 7.4) and n-octanol in an Eppendorf tube. After vigorous mixing of the suspension for 3 minutes at room temperature, the vial was centrifuged at 15000 g for 3 minutes (Biofuge 15, Heraus Sepatech, Osterode, Germany) and 100 μL aliquots of both layers were measured in a gamma counter. The experiment was repeated at least six times.
Determianation of the IogP values was carried out in phosphate buffered saline (PBS, pH 7.4) and n-octanol (=logPoct/PBS).

The nature of data set [3]: Formation of F-18-fluoride / isotopic exchange in mouse urine. In kind it is in vitro ADME, mice. The protocol: For in vivo μmetabolism studies, 8-12 MBq (<0.6 nmol) of the respective ^18F-labeled ligand (rhPSMA-7.1-7.4) was injected into the tail vein of female healthy CB17-SCID mice (n=4). Mice were left under anesthesia for 30 min and the urine was collected using a bladder catheter. Urine samples were pooled and centrifuged for 5 min at 9000 rpm to remove suspended solids. The supernatant was directly used for radio-HPLC analysis with the above mentioned conditions. […] Additionally, this experiment was carried out with the addition of excess Na^19F (0.5 μmop and incubation for 2 h with ^18F-labeled rhPSMA-7.3.
For this purpose normal mice were used. Urine samples were collected by means of a catheter over a period of 30 min. The urine was centrifuged and directly subjected to HPLC and TLC.
Consequently, fresh and nonradioactive urine samples collected from normal mice were incubated with [F-18]rhPSMA7.x for various time periods (see legend to FIG. 21).
To further support the hypothesis, 500 nmol cold F-19-fluoride was added to fresh and nonradioactive urine of mice, followed by the addition of [F-18]rhPSMA7.3 and incubation for 2 h. According to the hypothesis, the high concentration of [F-19]fluoride should result in the formation of a significant amount of [F-18]fluoride.

“And” between values parts separate entries of the source, which are not always exact repeats. Equal values may be shown once. Read-outs that look alike come from different tables or passages of the source.

One may read the IC50 as the concentration that gives 50% inhibition.

T1 sequence (Q04609 whole entry): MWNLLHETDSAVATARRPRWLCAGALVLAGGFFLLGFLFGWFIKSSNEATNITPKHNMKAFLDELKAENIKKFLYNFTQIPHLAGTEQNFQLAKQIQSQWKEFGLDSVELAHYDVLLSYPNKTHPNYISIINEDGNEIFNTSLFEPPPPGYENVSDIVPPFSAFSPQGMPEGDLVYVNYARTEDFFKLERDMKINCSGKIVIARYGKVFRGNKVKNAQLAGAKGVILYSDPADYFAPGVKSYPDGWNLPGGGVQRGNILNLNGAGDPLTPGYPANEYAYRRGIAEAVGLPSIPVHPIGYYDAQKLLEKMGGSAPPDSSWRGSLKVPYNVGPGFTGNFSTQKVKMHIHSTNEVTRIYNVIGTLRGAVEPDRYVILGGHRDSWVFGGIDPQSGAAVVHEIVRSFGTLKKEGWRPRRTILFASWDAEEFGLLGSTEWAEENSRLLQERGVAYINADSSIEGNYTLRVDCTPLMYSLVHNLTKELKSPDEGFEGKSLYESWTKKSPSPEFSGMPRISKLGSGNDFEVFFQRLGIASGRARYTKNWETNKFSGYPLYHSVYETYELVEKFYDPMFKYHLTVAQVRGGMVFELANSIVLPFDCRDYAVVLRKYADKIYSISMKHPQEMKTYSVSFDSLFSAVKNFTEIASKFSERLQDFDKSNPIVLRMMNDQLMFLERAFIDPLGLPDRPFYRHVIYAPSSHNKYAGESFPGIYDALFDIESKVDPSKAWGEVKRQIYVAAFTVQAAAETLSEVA

As to `CC(C)(C)[Si](F)(c1ccc(C(=O)NC[C@@H](NC(=O)CC[C@@H](C(=O)O)N2CCN(CC(=O)[O-])CCN(CC(=O)[O-])CCN(CC(=O)[O-])CC2)C(=O)N[C@H](CCCCNC(=O)CCC(=O)NCCC[C@@H](NC(=O)CC[C@H](NC(=O)N[C@@H](CCC(=O)O)C(=O)O)C(=O)O)C(=O)O)C(=O)O)cc1)C(C)(C)C.[Ga+3]` [rhPSMA7.3, [^19F][^natGa]D-Dap-S-DOTAGA-rhPSMA7], in data set [1], the Biodistribution adrenals was found to be 0.07 ± 0.09 % ID/g, the Biodistribution blood was 0.55 ± 0.14 % ID/g, the Biodistribution bone was found to be 0.34 ± 0.22 % ID/g and the Biodistribution heart is 0.26 ± 0.04 % ID/g. Also, in data set [1], the Biodistribution intestine is recorded as 0.94 ± 0.97 % ID/g, the Biodistribution kidneys is 15.5 ± 2.2 % ID/g, the Biodistribution liver was 0.46 ± 0.14 % ID/g and the Biodistribution lung came out at 0.69 ± 0.10 % ID/g. Moreover, in data set [1], the Biodistribution muscle is listed as 0.09 ± 0.02 % ID/g, the Biodistribution pancreas came out at 0.11 ± 0.02 % ID/g, the Biodistribution spleen is reported as 0.35 ± 0.02 % ID/g and the Biodistribution stomach is 0.76 ± 0.74 % ID/g. Besides, the Biodistribution tumor in data set [1] (LNCaP tumor) is listed as 1.5 ± 0.4 % ID/g. In addition, the IC50 at PSMA (HBSS+1% BSA, single measurements, read-out: individual IC50 measurements) was 3.17 nM and 2.91 nM and 5.35 nM and 5.74 nM and 4.59 nM and 4.45 nM. Also, at PSMA (mean of individual measurements, read-out: IC50 Mean), the IC50 came out at 4.37 nM. The “log P Mean” value in data set [2] (mean of individual measurements) is −3.26. Besides, the “individual log P measurements” value in data set [2] (single measurements) was −3.06 and −3.07 and −2.86 and −3.39 and −3.33 and −3.34 and −3.20 and −3.40 and −3.41 and −3.48 and −3.49 and −3.32 and −3.45 and −3.53 and −3.43 and −3.56 and −3.03 and −3.08 and −3.02. Besides, in data set [3] (fresh nonradioactive mouse urine + 0.5 μmol (500 nmol) cold F-19-fluoride, incubation 2 h), the “radioactivity converted to [F-18]fluoride” value came out at 98.5%. The “[F-18]rhPSMA7.3 proportion in radioactive urine after addition of 5 nmol [F-19]rhPSMA7-3” value in data set [3] (room temperature) amounted to 85.8%. The “[F-18]rhPSMA7.3 proportion in radioactive urine before addition of cold tracer” value in data set [3] (urine with 20.6% [F-18]Fluoride) is 79.4%.

The values are drawn from patent publication US12357711B2, “PSMA binding dual mode radiotracer and therapeutic” (Technische Universität München, priority 2019, dated 2025).
